Patent US9593140B2, “Antibacterial tylosin derivatives and methods for their preparation” (Bayer Intellectual Property GmbH, priority 2011, dated 2017)

Legend:
Type in all cases: cell-based
[1] = tested on: Mannhemia hemolytica KB345; test: Paper disc assay, M. hemolytica KB345 (Tilmicosin-sensitivity strain); settings: for zone of inhibition at 3 mg/disc / zone of inhibition at 10 mg/disc / zone of inhibition at 30 mg/disc / zone of inhibition at 100 mg/disc / zone of inhibition at 1 mg/disc: 24 h; for zone of inhibition at 1 mg/disc: 1 mg/6 mm disk
Protocol: (§1) (1) Antibacterial Activities Against Mannheimia and Pasteurella were Determined by the Following Steps:
(§2) 1) M. hemolytica KB345 (Tilmicosin-sensitivity strain) and M. hemolytica KB346 (Tilmicosin-low sensitivity strain) were provided. KB 345 strain stored at −80° C. was seeded to BHIB agar medium (10 mL) by using Microbank beads (Pro-Lab) and platinum nail. After statically incubating the KB 345 strain for 24 hours at 37° C., it was seeded to maintaining slant BHIB agar medium (7 mL) by using platinum loop, further statically incubated for 24 hours at 37° C. to obtain slant. One platinum loop of KB 345 strain stored at the slant was inoculated into a large test tube charged with BHIB liquid medium (10 mL) and then incubated for 24 hours at 37° C. with shaking.
(§3) 2) A paper disc (ADVANTEC, Φ:6 mm) was impregnated with a solution of test compound and dried under reduced pressure.
(§4) 3) To a melted BHIB agar medium was inoculated 1% of the broth obtained from step 1) above to prepare a test plate. After the medium set, the paper disc prepared in step 2) above was put on the plate and it was incubated at 37° C.
(§5) 4) After one day, the inhibition zone diameter and clarity (A to E) were determined.

[2] = tested on: Mannhemia hemolytica KB346; test: Paper disc assay, M. hemolytica KB346 (Tilmicosin-low sensitivity strain)
Protocol: as §1, §2, §3, §4, §5
For KB346 strain, the same procedures were repeated.

[3] = tested on: Micrococcus luteus ATCC9341; test: Paper disc assay, Micrococcus luteus (l)
Protocol: (§6) (2) Antibacterial activities against other bacteria were determined with Micrococcus luteus ATCC9341 (1), Bacillus subtilis […] (s), Escherichia coli NIHJ (c), Xanthomonas campestris KB88 (X), Mucor racemosus IFO 4581 (Mu) and Candida albicans ATCC 64548 (Ca).
(§7) Bacillus subtilis ATCC6633 was incubated in Davis synthetic medium and then the seed broth was combined with the medium in the ratio of 1:99 to obtain a test plate. Micrococcus luteus ATCC9341, Escherichia coli NIHJ and Xanthomonas campestris KB88 were respectively incubated in Nutrient agar medium and inoculated at 0.2%, 0.5% and 1.0%. Mucor racemosus IFO 4581 and Candida albicans ATCC 64548 were respectively incubated in GY agar medium and then inoculated at 0.3% and 0.2%.
(§8) A paper disc (ADVANTEC, Φ:6 mm) was impregnated with a solution of test compound and dried under reduced pressure. The paper disc was put on the test plate and it was incubated for 24 hours at 37° C. After incubation, the inhibition zone diameter and clarity (A to E) were determined.

[4] = tested on: Xanthomonas campestris KB88; test: Paper disc assay, Xanthomonas campestris (X)
Protocol: as §6, §7, §8

[5] = tested on: Bacillus subtilis ATCC6633; test: Paper disc assay, Bacillus subtilis (S)
Protocol: as §6, §7, §8

| SMILES | zone of inhibition at 3 mg/disc ([1]; Table 2, 3 mg/6 mm disk) [mm] | zone of inhibition at 10 mg/disc ([1]; Table 2, 10 mg/6 mm disk) [mm] | zone of inhibition at 30 mg/disc ([1]; Table 2, 30 mg/6 mm disk) [mm] | zone of inhibition at 100 mg/disc ([1]; Table 2, 100 mg/6 mm disk) [mm] | Inhibition zone (mm) ([3]; 0.1 mg/6 mm disc) | Inhibition zone (mm) ([3]; 1 mg/6 mm disc) | Inhibition zone (mm) ([3]; 10 mg/6 mm disc) | Inhibition zone (mm) ([4]; 0.1 mg/6 mm disc) | Inhibition zone (mm) ([4]; 1 mg/6 mm disc) | Inhibition zone (mm) ([4]; 10 mg/6 mm disc) | Inhibition zone (mm) ([5]; 0.1 mg/6 mm disc) | Inhibition zone (mm) ([5]; 1 mg/6 mm disc) | Inhibition zone (mm) ([5]; 10 mg/6 mm disc) | also measured |
| --- | --- | --- | --- | --- | --- | --- | --- | --- | --- | --- | --- | --- | --- | --- |
| CCC1OC(=O)CC(O)C(C)C(OC2OC(C)C(O)C(N(C)C)C2O)C(CC=O)CC(C)C(=O)C=CC(C)=CC1CN=[N+]=[N-] (stereo not drawn) [YT107, 23-azido-23-deoxo-5-O-mycaminosyltylonolide] |  |  |  |  |  |  |  |  |  |  |  |  |  | Inhibition zone (mm) ([1]; Table 4, 3 mg/6 mm disk): 12.0 mm; Inhibition zone (mm) ([1]; Table 4, 10 mg/6 mm disk): 16.0 mm; Inhibition zone (mm) ([1]; Table 4, 30 mg/6 mm disk): 18.0 mm; Inhibition zone (mm) ([1]; Table 4, 100 mg/6 mm disk): 21.5 mm; Inhibition zone (mm) ([2]; Table 5, 30 mg/6 mm disk): 10.5 mm; Inhibition zone (mm) ([2]; Table 5, 100 mg/6 mm disk): 15.0 mm |
| CC[C@H]1OC(=O)C[C@@H](O)[C@H](C)[C@@H](O[C@@H]2OC(C)[C@@H](O)C(N(C)C)C2O)[C@@H](CCn2cc(CCCCCl)nn2)C[C@@H](C)C(=O)/C=C/C(C)=C/[C@@H]1CO[C@@H]1OC(C)[C@@H](O)C(OC)C1OC (stereo partly drawn) [YT19, 20-(4-(4-chlorobutyl)-1H-1,2,3-triazol-1-yl)-20-deoxodesmycosin] | 14 | 16 | 18 | 21 | 13 | 19 | 26 | 7 | 14.5 | 23 | 7 | 10.5 | 15 |  |
| CC[C@H]1OC(=O)C[C@@H](O)[C@H](C)[C@@H](O[C@@H]2O[C@H](C)[C@@H](O)[C@H](N(C)C)[C@H]2O)[C@@H](CC=O)C[C@@H](C)C(=O)/C=C/C(C)=C/[C@@H]1CO [YT106, 5-O-mycaminosyltylonolide] |  |  |  |  |  |  |  |  |  |  |  |  |  | Inhibition zone (mm) ([1]; Table 4, 10 mg/6 mm disk): 8.5 mm; Inhibition zone (mm) ([1]; Table 4, 30 mg/6 mm disk): 12.5 mm; Inhibition zone (mm) ([1]; Table 4, 100 mg/6 mm disk): 15.0 mm; Inhibition zone (mm) ([2]; Table 5, 10 mg/6 mm disk): 9.0 mm; Inhibition zone (mm) ([2]; Table 5, 30 mg/6 mm disk): 13.0 mm; Inhibition zone (mm) ([2]; Table 5, 100 mg/6 mm disk): 17.0 mm |
| CC[C@H]1OC(=O)C[C@@H](O)[C@H](C)[C@@H](O[C@@H]2OC(C)[C@@H](O)C(N(C)C)C2O)[C@@H](CCn2cc(-c3ccccn3)nn2)C[C@@H](C)C(=O)/C=C/C(C)=C/[C@@H]1CO[C@@H]1OC(C)[C@@H](O)C(OC)C1OC (stereo partly drawn) [YT12, 20-(4-(pyridine-2-yl)-1H-1,2,3-triazol-1-yl)-20-deoxodesmycosin] | 13 | 17 | 19 | 22 | 12 | 18.5 | 25 | 7 | 12.5 | 27 | 7 | 12.5 | 14 | zone of inhibition at 1 mg/disc ([1]; Table 2): 9 mm |
| CCC1OC(=O)CC(O)C(C)C(OC2OC(C)C(O)C(N(C)C)C2O)C(CCN=[N+]=[N-])CC(C)C(=O)C=CC(C)=CC1COC1OC(C)C(O)C(OC)C1OC (stereo not drawn) [YT11, 20-azido-20-deoxodesmycosin] |  |  |  |  |  |  |  |  |  |  |  |  |  | Inhibition zone (mm) ([1]; Table 2, 3 mg/6 mm disk): 10.0 mm; Inhibition zone (mm) ([1]; Table 2, 10 mg/6 mm disk): 13.0 mm; Inhibition zone (mm) ([1]; Table 2, 30 mg/6 mm disk): 16.0 mm; Inhibition zone (mm) ([1]; Table 2, 100 mg/6 mm disk): 18.0 mm; Inhibition zone (mm) ([2]; Table 3, 100 mg/6 mm disk): 11.0 mm |
| CC[C@H]1OC(=O)C[C@@H](O)[C@H](C)[C@@H](O[C@@H]2O[C@H](C)[C@@H](O)[C@H](N(C)C)[C@H]2O)[C@@H](CCCl)C[C@@H](C)C(=O)/C=C/C(C)=C/[C@@H]1CO[C@@H]1O[C@H](C)[C@@H](O)[C@@H](OC)[C@H]1OC [YT8, 20-chloro-20-deoxodesmycosin] |  |  |  |  |  |  |  |  |  |  |  |  |  | Inhibition zone (mm) ([1]; Table 2, 10 mg/6 mm disk): 12.5 mm; Inhibition zone (mm) ([1]; Table 2, 30 mg/6 mm disk): 18.0 mm; Inhibition zone (mm) ([1]; Table 2, 100 mg/6 mm disk): 20.0 mm; Inhibition zone (mm) ([2]; Table 3, 30 mg/6 mm disk): 11.0 mm; Inhibition zone (mm) ([2]; Table 3, 100 mg/6 mm disk): 14.5 mm |
| CC[C@H]1OC(=O)C[C@@H](O)[C@H](C)[C@@H](O[C@@H]2OC(C)[C@@H](O)C(N(C)C)C2O)[C@@H](CCn2cc(-c3ccccc3)nn2)C[C@@H](C)C(=O)/C=C/C(C)=C/[C@@H]1CO[C@@H]1OC(C)[C@@H](O)C(OC)C1OC (stereo partly drawn) [YT13, 20-(4-phenyl-1H-1,2,3-triazol-1-yl)-20-deoxodesmycosin] | 15 | 16 | 18 | 21 | 15 | 21.5 | 27.5 | 8 | 17 | 23.5 | 9.5 | 12 | 15.5 | zone of inhibition at 1 mg/disc ([1]; Table 2): 11 mm |
| CC[C@H]1OC(=O)C[C@@H](O)[C@H](C)[C@@H](O[C@@H]2O[C@H](C)[C@@H](O)[C@H](N(C)C)[C@H]2O)[C@@H](CC=O)C[C@@H](C)C(=O)/C=C/C(C)=C/[C@@H]1CO[C@@H]1O[C@H](C)[C@@H](O)[C@@H](OC)[C@H]1OC [YT6, Desmycosin] |  |  |  |  |  |  |  |  |  |  |  |  |  | Inhibition zone (mm) ([1]; Table 2, 30 mg/6 mm disk): 10.5 mm; Inhibition zone (mm) ([2]; Table 3, 3 mg/6 mm disk): 8.5 mm; Inhibition zone (mm) ([2]; Table 3, 10 mg/6 mm disk): 13.5 mm; Inhibition zone (mm) ([2]; Table 3, 30 mg/6 mm disk): 17.5 mm; Inhibition zone (mm) ([2]; Table 3, 100 mg/6 mm disk): 21.0 mm |
| CC[C@H]1OC(=O)C[C@@H](O)[C@H](C)[C@@H](O[C@@H]2OC(C)[C@@H](O)C(N(C)C)C2O)[C@@H](CCn2cc(-c3ccc(N(C)C)cc3)nn2)C[C@@H](C)C(=O)/C=C/C(C)=C/[C@@H]1CO[C@@H]1OC(C)[C@@H](O)C(OC)C1OC (stereo partly drawn) [YT29, 20-(4-(4-dimethylaminophenyl)-1H-1,2,3-triazol-1-yl)-20-deoxodesmycosin] | 13.5 | 16 | 17.5 | 20 | 11 | 19.5 | 25.5 | 7 | 15 | 24 | 7 | 10 | 15 |  |
| CC[C@H]1OC(=O)C[C@@H](O)[C@H](C)[C@@H](O[C@@H]2OC(C)[C@@H](O)C(N(C)C)C2O)[C@@H](CCn2cc(CO)nn2)C[C@@H](C)C(=O)/C=C/C(C)=C/[C@@H]1CO[C@@H]1OC(C)[C@@H](O)C(OC)C1OC (stereo partly drawn) [YT37, 20-(4-(methanol)-1H-1,2,3-triazol-1-yl)-20-deoxodesmycosin] |  |  | 9 | 12.5 |  |  |  |  |  |  |  |  |  |  |
| CC[C@H]1OC(=O)C[C@@H](O)[C@H](C)[C@@H](O[C@@H]2OC(C)[C@@H](O)C(N(C)C)C2O)[C@@H](CCn2cc(CC(C)C)nn2)C[C@@H](C)C(=O)/C=C/C(C)=C/[C@@H]1CO[C@@H]1OC(C)[C@@H](O)C(OC)C1OC (stereo partly drawn) [YT33, 20-(4-(2-methyl-propyl)-1H-1,2,3-triazol-1-yl)-20-deoxodesmycosin] | 13 | 16 | 17 | 20 |  |  |  |  |  |  |  |  |  |  |
